One assay deals with Soybean shoot cuttings. Kind of assay: Root development of soybean shoot cuttings in tissue culture boxes with fertilizer solution and NAA. The format is in vivo. The conditions noted are these: higher NAA concentrations (10^-8 M, 10^-7 M, 10^-6 M tested); nine days; FIG. 3. On the procedure: Three NAA concentrations at 10^-8 M, 10^-7 M and 10^-6 M with 5 cm, 10 cm and 15 cm long shoots were tested in replicate. Soybean shoot cuttings were taken from plants recovered from tissue culture. Tissue culture boxes (Vitro […]) were used to hold the solutions, and the lids with a 2.5 cm hole in the middle were used to hold the shoots with the help of a cylindrical sponge. NAA solution was obtained from PhytoTechnology Laboratories. Fertilizer was applied from the stock A, B, and C solutions described in Example 1. Three separate 5-liter fertilizer solutions were made by mixing 10 ml each of fertilizer stock solution A, B and C in 4970 ml of tap water. NAA stock solution was added to achieve a final concentration of 10^-8 M, 10^-7 M and 10^-6 M solution, respectively. Soybean shoot cuttings were inserted into the sponge roll, and placed through the lid of the tissue culture box. The shoots in the solutions were placed in a greenhouse with 20 hour light cycles at 27° C. and 4 hour night cycles at 21° C. Data was collected nine days after the shoots were placed in the boxes.

For a further assay, the system named is Soybean shoots. Kind of assay: Root development of soybean shoot cuttings in 50 ml tubes with water or fertilizer solution ± NAA. Type of assay: in vivo. The conditions noted are these: NAA at 10^-8 M and 10^-7 M; day 12; FIG. 1B. On the procedure:
Soybean shoots 10 to 15 cm long were cut from 2 similar plants and placed in 50 ml plastic tubes. One shoot was placed in each tube. The tubes contain 50 ml solutions according to the following design: The base solution was either water or a 1:200 dilution of fertilizer stock solution A, B and C. Stock A contains 958.6 grams of 21-5-20 All Purpose from Jack's Professional, 133.8 grams of 15-0-15 Dark Weather (Jack's Professional) and 60.0 grams of 10-0-0 Magnitrate Special (Peter's Excel) in 2 liter of water. Stock B contains 239.6 grams of 15-5-25 Poinsettia Peat-Lite Special (Jack's Professional) in 2 liters of water. Stock C contains 60.0 grams of Epsom salt (magnesium sulfate) in 1.0 liter of water. NAA (1-Naphthaleneacetic acid, Sigma-Aldrich) was added to either water or fertilizer solutions to concentrations of 0, 10^-9 M, 10^-8 M and 10^-7 M. There were 2 fertilizer (with or without) treatments×4 NAA treatments, totaling 8 treatments. The experiment was repeated 3 times, making a total of 24 tubes. The shoots in the solutions were placed in a greenhouse with 20 hour light cycles at 28° C. and 4 hour night cycles at 22° C.

As for `O=C(O)Cc1cccc2ccccc12` [NAA, 1-Naphthaleneacetic acid], in the assay on Soybean shoot cuttings, the “effect of NAA on root length” value is recorded as “kept the roots shorter” and the “effect of NAA on root number” value is reported as “stimulated more roots from a shoot”. The “effect of NAA on root growth (root length)” value in the assay on Soybean shoots is on record as “positive effects on root growth”.

The record behind these values is US20140366441A1, “VEGETATIVE PROPAGATION OF SOYBEAN PLANTS IN A HYDROPONIC ENVIRONMENT” (Bayer Cropscience LP, priority 2012, published 2014).
